Structures can show the parent of a compound that is named as a salt. Where two headings read alike, the source gives them in different places.
Target: T1, human renal renin (Homo sapiens, UniProt P00797)
T1 construct: human renal renin, free from acid proteolytic activity; from tissue
T1 sequence (P00797 67-406): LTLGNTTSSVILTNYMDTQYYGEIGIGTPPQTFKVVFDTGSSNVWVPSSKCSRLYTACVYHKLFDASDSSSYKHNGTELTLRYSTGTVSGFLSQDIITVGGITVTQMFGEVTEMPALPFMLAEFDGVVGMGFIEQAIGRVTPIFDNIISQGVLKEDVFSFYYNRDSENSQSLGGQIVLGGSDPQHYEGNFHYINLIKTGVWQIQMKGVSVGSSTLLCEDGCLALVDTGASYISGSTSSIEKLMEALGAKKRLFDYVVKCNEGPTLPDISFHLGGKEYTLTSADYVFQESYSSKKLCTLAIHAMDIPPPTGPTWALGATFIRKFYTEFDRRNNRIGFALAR
Test: Inhibition of human renal renin in vitro; angiotensin I formed measured by radioimmunoassay
Type: biochemical

Row | SMILES | IC50 [nM] | IC50 (human renal renin free from acid proteolytic activity, renin substrate human angiotensinogen, 37° C., pH 6.0) [nM]
1 | CC(C)C[C@H](O)[C@H](O)[C@H](CC1CCCCC1)NC(=O)[C@H](Cc1c[nH]cn1)NC(=O)[C@H](Cc1ccccc1)NC(=O)c1cnccn1 [Example 87, (Pyrazin-2-yl-carbonyl)-Phe-His Amide of 2(S)-Amino-1-cyclohexyl-3(R),4(S)-dihydroxy-6-methylheptane] | 0.55 | 
2 | COc1ccc(C[C@H](NC(=O)C2CCNCC2)C(=O)N[C@@H](Cc2c[nH]cn2)C(=O)N[C@@H](CC2CCCCC2)[C@@H](O)[C@@H](O)CC(C)C)cc1 [Example 179, H-Isonipecotyl-(4-OCH3)Phe-His Amide of 2(S)-Amino-1-cyclohexyl-3(R),4(S)-dihydroxy-6-methylheptane Diacetic Acid Salt] | 1 | 
3 | CC(C)C[C@H](O)[C@H](O)[C@H](CC1CCCCC1)NC(=O)[C@H](Cc1c[nH]cn1)NC(=O)[C@H](Cc1ccccc1)NC(=O)C1CCNCC1 [Example 68, H-Isonipectoyl-Phe-His Amide of 2(S)-Amino-l-cyclohexyl-3(R),4(S)-dihydroxy-6-methylheptane Diacetic Acid Salt] | 1 | 
4 | CC(C)C[C@H](O)[C@H](O)[C@H](CC1CCCCC1)NC(=O)[C@H](Cc1c[nH]cn1)NC(=O)[C@H](Cc1ccccc1)NC(=O)OC(C)(C)C [Example 15, Boc-Phe-His Amide of 2(S)-Amino-l-cyclohexyl-3(R),4(S)-dihydroxy-6-methylheptane] |  | 1.5
5 | CC(C)C[C@H](O)[C@H](O)[C@H](CC1CCCCC1)NC(=O)[C@H](Cc1c[nH]cn1)NC(=O)[C@H](Cc1ccccc1)NC(=O)C(C)(C)N [Example 85, alpha-Aminoisobutyryl-Phe-His Amide of 2(S)-Amino-1-cyclohexyl-3(R),4(S)-dihydroxy-6-methylheptane] | 0.4 | 

From patent US5032577A, “Peptidylaminodiols” (Abbott Laboratories, priority 1987, dated 1991)
